Columns and labels:
Settings in all cases: 4 days
[1] = system: SKM1; assay: area under dose-response curve (cell viability) (AUC (arbitrary, % viability x log concentration)); higher = less sensitive (more viable)
Method in brief: (§1)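 Drugs were dispensed robotically, one day after plating, onto fourteen leukemia cell lines in 384-well plates coated with extracellular matrix. Each drug was tested in duplicate at eight concentrations spanning 4–5 logs inside 10^–12–10^–4 M, adjusted per drug, and CellTiter-Glo readout followed after 4 days. Duplicates were averaged and a four-parameter sigmoid was fitted. The area under that fitted curve is the reported value.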

[2] = system: HL60; assay: as above
Method in brief: as §1

[3] = system: PL-21; assay: as above
Method in brief: as §1

[4] = system: OCI-AML3; assay: as above
Method in brief: as §1

[5] = system: U937; assay: as above
Method in brief: as §1

[6] = system: MV4.11; assay: as above
Method in brief: as §1

[7] = system: SKM1; assay: IC50 (cell viability) (log10 M)
Method: (§2)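 14 AML cell lines were treated with 8 drug concentrations in duplicate on ECM-coated 384-well plates, with CellTiter-Glo viability read after 4 days. IC50 is the concentration where the fitted 4-parameter curve crosses 50% viability. For inactive compounds the maximum tested concentration is used as a placeholder.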

[8] = system: MOLM/13; assay: IC50 (cell viability) (log10 M)
Method: as §2

[9] = system: KG1; assay: IC50 (cell viability) (log10 M)
Method: as §2

[10] = system: OCI-AML2; assay: IC50 (cell viability) (log10 M)
Method: as §2

[11] = system: EOL-1; assay: IC50 (cell viability) (log10 M)
Method: as §2

[12] = system: HL60; assay: IC50 (cell viability) (log10 M)
Method: as §2

[13] = system: PL-21; assay: IC50 (cell viability) (log10 M)
Method: as §2

[14] = system: NB4; assay: IC50 (cell viability) (log10 M)
Method: as §2

[15] = system: OCI-AML3; assay: IC50 (cell viability) (log10 M)
Method: as §2

[16] = system: MOLM/16; assay: IC50 (cell viability) (log10 M)
Method: as §2

[17] = system: U937; assay: IC50 (cell viability) (log10 M)
Method: as §2

[18] = system: THP-1; assay: IC50 (cell viability) (log10 M)
Method: as §2

[19] = system: KASUMI1; assay: IC50 (cell viability) (log10 M)
Method: as §2

[20] = system: MV4.11; assay: IC50 (cell viability) (log10 M)
Method: as §2

Compound | area under dose-response curve [1] | area under dose-response curve [2] | area under dose-response curve [3] | area under dose-response curve [4] | area under dose-response curve [5] | area under dose-response curve [6] | IC50 (log10 M) [7] | IC50 (log10 M) [8] | IC50 (log10 M) [9] | IC50 (log10 M) [10] | IC50 (log10 M) [11] | IC50 (log10 M) [12] | IC50 (log10 M) [13] | IC50 (log10 M) [14] | IC50 (log10 M) [15] | IC50 (log10 M) [16] | IC50 (log10 M) [17] | IC50 (log10 M) [18] | IC50 (log10 M) [19] | IC50 (log10 M) [20]
CC(=O)c1c(C)c2cnc(Nc3ccc(N4CCNCC4)cn3)nc2n(C2CCCC2)c1=O | 438 | 474 | 404 | 433 | 393 | 423 | -6.36 | -6.46 | -5.08 | -6.91 | -6.53 | -5.13 | -6.75 | -6.88 | -6.18 | -5.87 | -6.88 | -5.16 | -5.47 | -6.42
CC(C)CC(=O)Nc1n[nH]c2c1CN(C(=O)C1CCN(C)CC1)C2(C)C | 336 | 522 | 452 | 281 | 283 | 352 | -7.49 | -7.75 | -5.76 | – | -7.54 | -6.01 | -6.5 | – | – | – | – | -6.18 | -6.34 | -7.67
CN1CC[C@@H](NC(=O)Nc2ccc(C#N)cc2)C[C@@H]1c1nc2ccccc2[nH]1 | 624 | 632 | 563 | 588 | 608 | 584 | > -5 | > -5 | > -5 | > -5 | > -5 | > -5 | > -5 | > -5 | > -5 | > -5 | > -5 | > -5 | > -5 | > -5
COc1ccc(-c2cc3c(C)nc(N)nc3n([C@H]3CC[C@H](OCCO)CC3)c2=O)cn1 | 399 | 414 | 403 | 402 | 397 | 387 | -6.77 | -6.61 | -6.3 | -6.58 | -7.09 | -6.45 | -6.89 | -6.21 | -6.89 | -7.12 | -6.9 | -6.67 | -6.97 | -6.94
COc1ccc2c(c1)CCC1C2CCC2(C)C(NCCCCCCN3C(=O)C=CC3=O)CCC12 (configuration not stated) | 608 | 512 | 559 | 547 | 589 | 644 | -5.73 | > -5 | -5.95 | > -5 | -6.09 | -6.4 | -5.7 | > -5 | -5.91 | > -5 | -5.89 | -5.71 | -6.38 | -5.56
Cc1cnc(Nc2ccc(OCCN3CCCC3)cc2)nc1Nc1cccc(S(=O)(=O)NC(C)(C)C)c1 | 518 | 617 | 516 | 540 | 562 | 392 | -5.97 | -6.89 | -6.17 | -6.08 | -7.2 | -5.83 | -5.92 | -5.79 | -5.86 | -6.74 | -5.78 | -5.84 | -6.25 | -7.28
NC(=O)c1ccc(-c2nc(-c3ccccn3)c(-c3ccc4c(c3)OCO4)[nH]2)cc1 | 722 | 824 | 629 | 712 | 695 | 665 | > -5 | > -5 | > -5 | > -5 | -5.08 | > -5 | > -5 | > -5 | > -5 | > -5 | > -5 | > -5 | > -5 | > -5
O=C(NC[C@H](O)CO)c1ccncc1Nc1ccc(I)cc1F | 194 | 276 | 325 | 150 | 536 | 432 | < -8.48 | -5.76 | -7.51 | < -8.48 | -7.52 | < -8.48 | -7.99 | -7.41 | < -8.48 | -6.62 | -5.51 | -6.09 | -7.59 | -6.87
O=C(NOC[C@H](O)CO)c1ccc(F)c(F)c1Nc1ccc(I)cc1F | 83.9 | 209 | 218 | 109 | 505 | 344 | < -8.34 | -6.01 | -7.31 | < -8.34 | -7.9 | < -8.34 | < -8.34 | -7.96 | < -8.34 | -6.6 | -5.32 | -5.4 | -7.93 | -7.47
O=C1NC(=O)/C(=C\c2ccc3nccnc3c2)S1 | 637 | 647 | 612 | 647 | 648 | 665 | > -5 | > -5 | > -5 | > -5 | > -5 | > -5 | > -5 | > -5 | > -5 | > -5 | > -5 | > -5 | > -5 | > -5
O=C1NC(=O)c2c1c1c3ccccc3n3c1c1c2c2ccccc2n1[C@H]1CC[C@@H]3O1 | 656 | 751 | 625 | 649 | 679 | 532 | > -6 | > -6 | > -6 | > -6 | -6.45 | > -6 | > -6 | > -6 | > -6 | -6.46 | > -6 | > -6 | > -6 | > -6
OCCn1cc(-c2cnc3nnn(Cc4ccc5ncccc5c4)c3n2)cn1 | 616 | 645 | 559 | 552 | 604 | 557 | > -5 | > -5 | > -5 | > -5 | > -5 | > -5 | > -5 | > -5 | > -5 | > -5 | > -5 | > -5 | > -5 | > -5
Nc1ncnc2c1c(I)cn2[C@@H]1O[C@H](CO)[C@@H](O)[C@H]1O [5-Iodotubercidin] | 559 | 457 | 497 | 571 | 501 | 313 | -5.99 | -6.69 | -6.38 | -5.94 | -6.7 | -6.11 | -5.95 | -5.89 | -5.95 | -6.88 | -6.12 | -5.86 | -6.1 | -8.32
COc1cc2c(Oc3ccc4[nH]c(C)cc4c3F)ncnc2cc1OCCCN1CCCC1 [AZD2171] | 640 | 785 | 646 | 687 | 724 | 656 | > -5 | > -5 | – | > -5 | -6.47 | > -5 | > -5 | > -5 | > -5 | > -5 | > -5 | > -5 | > -5 | > -5
NC(=O)Nc1cc(-c2cccc(F)c2)sc1C(=O)N[C@H]1CCCNC1 [AZD7762] | 271 | 471 | 357 | 415 | 341 | 29.7 | – | < -8.48 | -6.83 | -7.93 | < -8.48 | -6.87 | -7.69 | -7.74 | -7.08 | -7.3 | -7.84 | -7.65 | -7.28 | < -8.48
C=C(c1ccc(C(=O)O)cc1)c1cc2c(cc1C)C(C)(C)CCC2(C)C [Bexarotene] | 469 | 661 | 589 | 550 | 608 | 339 | > -5 | > -5 | > -5 | > -5 | -5.94 | > -5 | > -5 | > -5 | > -5 | > -5 | > -5 | > -5 | > -5 | –
Oc1cccc(-c2nc(N3CCOCC3)c3oc4ncccc4c3n2)c1 [PI-103] | 463 | 453 | 305 | 442 | 412 | 482 | -6.33 | -6.02 | -5.82 | -6.15 | -6.88 | -6.37 | -5.33 | -5.51 | -6.57 | – | -6.89 | -6.15 | -6.95 | -6.42
CN(C)C1CCN(C(=O)c2ccc(NC(=O)Nc3ccc(-c4nc(N5CCOCC5)nc(N5CCOCC5)n4)cc3)cc2)CC1 [PKI-587] | 372 | 437 | 374 | 248 | 255 | 363 | -7.5 | -7.6 | -5.83 | -7.38 | -7.97 | -6.61 | -7.52 | -6.65 | – | -6.61 | < -8.34 | -6.85 | -6.27 | -7.54
NC(=O)Nc1sc(-c2ccc(F)cc2)cc1C(N)=O [TPCA-1] | 638 | 669 | 585 | 656 | 598 | 609 | -5.51 | -5.52 | -5.87 | -5.45 | -6.14 | -5.45 | -5.46 | -5.05 | -5.43 | -6.29 | -5.73 | – | -5.74 | -5.67
C=CCNC1=C2C[C@@H](C)C[C@H](OC)[C@H](O)[C@@H](C)/C=C(\C)[C@H](OC(N)=O)[C@@H](OC)/C=C\C=C(/C)C(=O)NC(=CC1=O)C2=O [Tanespimycin] | 404 | 586 | 475 | 484 | 480 | 280 | -7 | -7.55 | -5.84 | -7.81 | -7.03 | -5.97 | -6.55 | -7.5 | -6.64 | – | -6.46 | -6.24 | -6.43 | -8.16
Nc1nc2[nH]cnc2c(=S)[nH]1 [Thioguanine] | – | – | – | – | – | – | -5.34 | -5.97 | -5.12 | -5.95 | -6.18 | -5.12 | -5.37 | -5.8 | -6.03 | -5.43 | -5.09 | -6.09 | -5.09 | -5.79

Reference: the supplement of paper PMC5752671
